Experimental data published in PubChem BioAssay (NCI).
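Cells were grown in 96-well plates and exposed to each compound for 48 hours at five concentrations; endpoints were interpolated linearly between bracketing concentrations, or set to the highest concentration if not reached. GI50: concentration for 50% inhibition of growth. TGI denotes the concentration required for complete inhibition of growth.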

What was measured:
Experiment in all cases: NCI anticancer screen, dose series, 48 h
[1] = system: SF-268 CNS
[2] = system: MOLT-4 leukemia
[3] = system: IGROV1 ovarian
[4] = system: OVCAR-4 ovarian
[5] = system: SK-MEL-5 melanoma
[6] = system: MALME-3M melanoma
[7] = system: SNB-75 CNS
[8] = system: HT29 colon
[9] = system: OVCAR-5 ovarian
[10] = system: CCRF-CEM leukemia

| Structure (SMILES) | TGI [1] | TGI [2] | TGI [3] | TGI [4] | TGI [5] | TGI [6] | TGI [7] | TGI [8] | TGI [9] | TGI [10] | GI50 [2] | GI50 [8] | GI50 [9] | GI50 [10] | GI50 [1] | GI50 [3] | GI50 [4] | GI50 [5] | GI50 [6] | GI50 [7] |
| --- | --- | --- | --- | --- | --- | --- | --- | --- | --- | --- | --- | --- | --- | --- | --- | --- | --- | --- | --- | --- |
| COc1cc([N+](=O)[O-])c(S(=O)(=O)O)cc1-[n+]1nc(C(=O)Nc2ccccc2)nn1-c1ccc([N+](=O)[O-])c(S(=O)(=O)[O-])c1 | > 100 µM | > 100 µM | > 100 µM | > 100 µM | > 100 µM | > 100 µM | > 100 µM | > 100 µM | > 100 µM | > 100 µM |  |  |  |  |  |  |  |  |  |  |
| CCCC/C=C1/CCC(CN(C)C)C1=O (centres undefined) | 5.91 µM | 4.15 µM | 10.1 µM | 8.27 µM | 22 µM | 4.07 µM | 6.99 µM | 4.7 µM | 12.3 µM | 1.76 µM | 1.21 µM | 2.3 µM | 0.0971 µM | 0.424 µM |  |  |  |  |  |  |
| O=C(/C=C/c1ccccn1)c1ccccc1 | 36.4 µM | 27.6 µM | 85.3 µM | 18.3 µM | 24.8 µM | 35.1 µM | 21 µM | 4.3 µM | 24.1 µM | 6.61 µM | 3.1 µM | 1.99 µM | 6.52 µM | 2.43 µM | 19.4 µM | 3.84 µM | 5.06 µM | 12.1 µM | 13.8 µM | 5.57 µM |
| CNC(=O)N(CCCCC(NC(C)=O)C(=O)NCc1ccccc1)Cc1ccccc1 (centres undefined) | > 100 µM | > 100 µM | > 100 µM | > 100 µM | > 100 µM | > 100 µM | > 100 µM | > 100 µM | > 100 µM | > 100 µM |  |  |  |  |  |  |  |  |  |  |
| COc1cc(C(=O)/C=C/c2c(C)n([O-])c3ccc(Cl)cc3[n+]2=O)cc(OC)c1OC | 98.7 µM | 27.9 µM | > 100 µM | > 100 µM | > 100 µM | > 100 µM | > 100 µM | > 100 µM | > 100 µM | 18.3 µM | 3.06 µM | 3.94 µM | 27 µM | 2.14 µM | 3.53 µM | 9.07 µM | 9.29 µM | 12.1 µM | 36.3 µM | 5.18 µM |
| Cc1cc(N(CCC#N)CCC#N)ccc1/C=C1N=C(/C=C\c2ccccc2)N(c2ccc(C(=O)O)cc2)C\1=O | > 100 µM | > 100 µM | > 100 µM | > 100 µM | > 100 µM | > 100 µM | > 100 µM | > 100 µM | > 100 µM | > 100 µM |  |  |  |  |  |  |  |  |  |  |
| Cn1cc(C2=C(c3cccc([N+](=O)[O-])c3)C(=O)NC2=O)c2ccccc21 | > 25 µM | > 22.8 µM | 24.2 µM | > 25 µM | 8.48 µM | > 25 µM | > 25 µM | > 25 µM | > 25 µM | > 25 µM | 7.18 µM | 7.29 µM | > 25 µM | 7.19 µM | 11.8 µM | 9.98 µM | 6.06 µM | 3.63 µM | 13.6 µM | 0.14 µM |
| CC(C)OC(=O)c1cc(NC(=S)OC(C)C)ccc1Cl | > 59.6 µM | > 79.2 µM | > 56.2 µM | > 56 µM | 33.1 µM | > 56.9 µM | 47.5 µM | 38.6 µM | > 63.1 µM | > 96.3 µM |  |  |  |  |  |  |  |  |  |  |
